One data set relates to K562 strain. The data set is described as follows: MTT assay, K562 strain. The class given is cell-based. The procedure:
(§1) Specifically, first, cells plated in a 96-well microplate such that the density thereof became 5×10^3 cells/well were cultured for one night in a culture solution having the same composition as those in the reference examples. Thereafter, the culture solution was exchanged with 100 μL of a culture solution of which the concentration of peptides is 0 μM to 100 μM for culturing for 72 hours. After the culturing, an MTT-containing PBS solution was added to the culture solution, and the mixture was incubated for 4 hours. Then, formazan which was generated by putting 100 μL of isopropanol (containing 34 (v/v) % of hydrochloric acid) into each of the wells was dissolved. The absorbance of each of the wells of the microplate at 570 nm was measured using a microplate reader. As controls, culturing was performed in the same manner except that no peptide was added to the strains, an MTT assay was performed thereon, and the absorbance at 570 nm was measured (untreated).
(§2) Specifically, the cells were cultured for 72 hours similarly to Example 2 except that a peptide to be added to a cell strain was set to peptide 1, 3, or 4, or a control peptide, an MTT assay was performed thereon, and the absorbance at 570 nm was measured.
(§3) In the method for measuring the viable cell counts, cells were cultured for 3 days similarly to Example 1 except that a 25 μM (10 μM for an HL-60 strain, a K562 strain, and a U937 strain) culture solution containing a control peptide or a peptide 1 was used, and the viable cell counts were measured. As a comparison, culturing was performed similarly to the above using a culture solution containing no peptide, and the viable cell counts were measured (untreated).
(§4) In addition, in the method for performing an MTT assay, cells were cultured for 72 hours similarly to Example 2 except that a peptide to be added to a strain was set to a control peptide or a peptide 1 at 25 μM (10 μM for an HL-60 strain, a K562 strain, and a U937 strain), an MTT assay was performed thereon, and the absorbance at 570 nm was measured. As a comparison, culturing was performed similarly to the above using a culture solution containing no peptide, and the MTT assay was performed thereon (untreated).
(§5) Specifically, the cells were cultured for 72 hours similarly to Example 2 except that a peptide to be added to a cell was set to a peptide 1, 2, 5, or 6, MTT assays were performed thereon, and the absorbance at 570 nm was measured. As a comparison, culturing was performed similarly to the above using a culture solution containing no peptide, and the MTT assay was performed thereon (untreated).
Specifically, the cells were cultured for 72 hours similarly to Example 2 except that peptides to be added to cell strains were set to peptides 7 to 14, MTT assays were performed thereon, and the absorbance at 570 nm was measured. As a comparison, culturing was performed similarly to the above using a culture solution containing no peptide, and the MTT assay was performed thereon (untreated).
Specifically, the cells were cultured for 72 hours similarly to Example 2 except that a peptide to be added to a cell strain was set to a peptide 15 or 16, an MTT assay was performed thereon, and the absorbance at 570 nm was measured. As a comparison, culturing was performed similarly to the above using a culture solution containing no peptide, and the MTT assay was performed thereon (untreated).
In general terms: Tetrazolium assays rely on reduction of a dye to a coloured formazan, in cell work by metabolically active cells.

For another data set, the system named is RPMI8226 strain. In words: MTT assay, RPMI8226 strain. The class given is cell-based. Conditions: peptide 0 μM to 100 μM, 72 hours. The procedure: as §1, §2
The next data set relates to KATO-III strain. In words: MTT assay, KATO-III strain. The class given is cell-based. Conditions: MTT assay, 72 hours. The procedure: as §1
Another data set relates to OCUM-1 strain. The data set is described as follows: MTT assay, OCUM-1 strain. The class given is cell-based. Conditions: MTT assay, 72 hours. The procedure:
as §1

The test system of a further data set is U937 strain. In words: MTT assay, U937 strain. It counts as cell-based. The procedure: as §1, §2, §3, §4
A further data set deals with MKN45 strain. In words: MTT assay, MKN45 strain. It counts as cell-based. The procedure:
as §1, with “Thereafter, the culture solution was exchanged with 100 μL of a culture solution of which the concentration of peptides is 0 μM to 100 μM for culturing for 72 hours.” left out
as §3, §4, §5
Specifically, the cells were cultured for 72 hours similarly to Example 2 except that peptides to be added to cell strains were set to peptides 7 to 14, MTT assays were performed thereon, and the absorbance at 570 nm was measured. […]
Specifically, the cells were cultured for 72 hours similarly to Example 2 except that a peptide to be added to a cell strain was set to a peptide 15 or 16, an MTT assay was performed thereon, and the absorbance at 570 nm was measured. […]

The subject of the next data set is MKN45 cell strains. In words: Cancer mouse model transplanted with MKN45 cell strain. It counts as in vivo. As to conditions: nude mice with MKN45 transplant. The procedure:
Rearing of 10 nude male mice (BALB/cAJcl-nu/nu, purchased from CLEA Japan, Inc.) at the age of 7 weeks was started, and MKN45 cell strains separately cultured were transplanted into the mice by being subcutaneously injected thereinto on day 31. The day on which the transplantation was performed was set as day 0, the mice were divided into two groups (peptide 1-administered group and control peptide-administered group) of 5 mice on day 14 of the transplantation, 4 mice were selected among the 5 mice from each group, and the peptide 1 or the control peptide was administered. The remaining one mouse was set as a spare. In the peptide 1-administered group, 100 μL of a 30 μM peptide 1 solution (solution prepared by adding a methylcellulose solution to the solution after the peptide 1 was dissolved in PBS (−)) was subcutaneously injected into a tumor site (site into which the MKN45 cell strain was injected) 4 times every 3 days. In the control peptide-administered group, 100 μL of a 30 μM control peptide solution (solution prepared by adding a methylcellulose solution to the solution after the control peptide was dissolved in PBS (−)) was subcutaneously injected into a tumor site 4 times on the same days as those in the peptide 1-administered group.
The results in which the points of time (days) at which a peptide solution was administered to each mouse and the volume (mm^3) of a tumor site were temporally measured are shown in FIG. 21. For the volume of the tumor site, the width and the length of the tumor site determined from the appearance of the mouse were measured and calculated using the following formula. [Volume(mm^3) of Tumor Site]=([Width(mm) of Tumor Site]^2×[Length(mm) of Tumor Site])/2
The “width of tumor site” referred herein means a maximum width of a portion in which the skin has risen due to the tumor and the “length of tumor site” means a maximum length of a portion in which the skin has risen due to the tumor.

The mark [1] stands for this setting: 72 hours, peptide concentrations up to 250 μM.
Setting [2] is: peptide 0 μM to 100 μM, 72 hours.
Setting [3] is: peptide 10 μM, 3 days / 72 hours.

SMILES strings stand for the structures. Entries after “also recorded” stand apart in the source; their conditions may differ.

With `CC(C)[C@H](NC(=O)[C@H](Cc1ccc(O)cc1)NC(=O)[C@H](CS)NC(=O)[C@@H](NC(=O)[C@H](Cc1ccc(O)cc1)NC(=O)[C@@H]1CCCN1C(=O)[C@@H]1CCCN1C(=O)[C@H](CO)NC(=O)[C@H](CC(N)=O)NC(=O)[C@H](CO)NC(=O)[C@@H]1CCCN1C(=O)CCCCCNC(=O)[C@H](CCCNC(=N)N)NC(=O)[C@H](CCCNC(=N)N)NC(=O)[C@H](CCCNC(=N)N)NC(=O)[C@H](CCC(N)=O)NC(=O)[C@H](CCCNC(=N)N)NC(=O)[C@H](CCCNC(=N)N)NC(=O)[C@H](CCCCN)NC(=O)[C@H](CCCCN)NC(=O)[C@H](CCCNC(=N)N)NC(=O)CNC(=O)[C@@H](N)Cc1ccc(O)cc1)C(C)C)C(N)=O` [peptide 1, YGRKKRRQRRR-X-PSNSPPYVCYV-NH2], the “cell proliferation (MTT assay, absorbance at 570 nm)” value in the data set with K562 strain (setting [1]) and with MKN45 strain (setting [1]) was “inhibited” throughout. The “concentration at which a dominant effect of inhibiting the cell proliferation was recognized” value was “greater than or equal to 6.25 μM” in the data set on K562 strain (MTT assay, 72 hours); “greater than or equal to 25 μM” in the data set on KATO-III strain; “greater than or equal to 6.25 μM” in the data set with OCUM-1 strain. For the same compound, the “absorbance at 570 nm (MTT assay), influence on cell proliferation” value in the data set on K562 strain (setting [2]) is recorded as “inhibited”; in the data set on RPMI8226 strain it was “no effect of inhibiting the cell proliferation; also recorded: not inhibited”. For the same compound, the “cell proliferation (viable cell counts and MTT assay)” value is on record as “inhibited” with K562 strain (setting [3]); “inhibited” in the data set with U937 strain (setting [3]); “inhibited” with MKN45 strain (peptide 25 μM, 3 days / 72 hours). In the data set with U937 strain (setting [2]), the “absorbance at 570 nm (MTT assay), cell proliferation” value is “inhibited”. Moreover, the body weight entry in the data set on MKN45 cell strains (100 μL of 30 μM peptide solution 4 times, vs spare mice given nothing) is recorded as “no particularly significant change”. Further, in the data set with MKN45 cell strains (100 μL of 30 μM peptide solution subcutaneously into tumor site 4 times every 3 days from day 14), the “volume (size) of the tumor site” value is given as “rarely changed”.

The record behind these values is patent US9676820B2, “Method for inhibiting proliferation of high LIX1L-expressing tumor cell, and tumor cell proliferation-inhibiting peptide” (National University Corporation Hamamatsu University School …, priority 2013, dated 2017).
